# Reference: article PMC6718442, “11β-Hydroxysteroid dehydrogenases control access of 7β,27-dihydroxycholesterol to retinoid-related orphan receptor γ” (Journal of Lipid Research, 2019)
# Read-outs that look alike come from different tables or passages of the source.
# Experiments:
# human 11β-HSD1 = molecular target: T1, human 11β-HSD1 (Homo sapiens, UniProt P28845); assay: Inhibition of 11β-HSD1-dependent oxoreduction of cortisone in HEK-293 cell lysates; format: biochemical; settings: for IC50: human enzyme, 200 nM cortisone, read-out: IC50, 11β-HSD1-dependent conversion of cortisone to cortisol
# T1 construct: expressed in transfected cells
# T1 sequence (P28845 whole entry): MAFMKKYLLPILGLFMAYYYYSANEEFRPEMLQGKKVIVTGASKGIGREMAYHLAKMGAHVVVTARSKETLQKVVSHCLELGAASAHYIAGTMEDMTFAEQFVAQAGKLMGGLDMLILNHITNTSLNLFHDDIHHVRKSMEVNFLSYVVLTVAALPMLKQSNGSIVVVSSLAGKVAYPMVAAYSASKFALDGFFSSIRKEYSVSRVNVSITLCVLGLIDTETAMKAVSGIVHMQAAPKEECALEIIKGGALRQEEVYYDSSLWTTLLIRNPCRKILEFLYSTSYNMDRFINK
# Description: (§1) 11β-HSD1 and 11β-HSD2 enzyme activities were assessed in lysates of HEK-293 cells stably expressing the respective enzyme as reported earlier ([40]). Briefly, 11β-HSD1-dependent oxoreductase activity was determined by the incubation of lysates with 200 nM of radiolabeled cortisone, 500 μM of NADPH, and the test substance or vehicle for 10 min at 37°C. 11β-HSD2-dependent oxidation of cortisol was measured instead by the addition of 50 nM of radiolabeled cortisol and 500 μM of NAD^+. The enzymatic reaction was stopped by introducing an excess amount of unlabeled cortisone and cortisol (1:1, 2 mM unlabeled each, in methanol). Cortisone and cortisol were separated using TLC and a chloroform and methanol (9:1, v/v) mixture. The bands were detected under UV light, scraped off the plate, and metabolism of the radiolabeled substrate was then evaluated by scintillation counting and the substrate conversion determined and compared with the control sample. Data (mean ± SD) were normalized to the control (DMSO) sample and obtained from at least three independent experiments.
# mouse 11β-hsd1 = molecular target: T2, mouse 11β-hsd1 (Mus musculus, UniProt P50172); assay: Inhibition of murine 11β-hsd1-dependent oxoreduction of cortisone in HEK-293 cell lysates; format: biochemical; settings: for IC50: mouse ortholog, 200 nM cortisone, 10 min, 37°C, read-out: IC50, mouse 11β-hsd1-dependent conversion of cortisone to cortisol
# T2 construct: expressed in transfected cells; host or cells: HEK-293
# T2 sequence (P50172 whole entry): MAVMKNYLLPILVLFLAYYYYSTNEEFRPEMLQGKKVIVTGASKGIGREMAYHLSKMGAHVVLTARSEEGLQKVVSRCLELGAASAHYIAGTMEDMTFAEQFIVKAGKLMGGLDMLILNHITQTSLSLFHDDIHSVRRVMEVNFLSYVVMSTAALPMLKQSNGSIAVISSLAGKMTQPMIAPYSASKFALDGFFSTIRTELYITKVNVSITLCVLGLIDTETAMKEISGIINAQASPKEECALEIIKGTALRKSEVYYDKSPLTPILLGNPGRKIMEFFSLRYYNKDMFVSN
# Description: as §1
# 11β-HSD2 = molecular target: T3, 11β-HSD2 (Homo sapiens, UniProt P80365); assay: Inhibition of 11β-HSD2-dependent oxidation of cortisol in HEK-293 cell lysates; format: biochemical; settings: for IC50: human enzyme, 50 nM cortisol, 10 min, 37°C, read-out: IC50, 11β-HSD2-dependent conversion of cortisol to cortisone
# T3 construct: expressed in transfected cells
# T3 sequence (P80365 1-405): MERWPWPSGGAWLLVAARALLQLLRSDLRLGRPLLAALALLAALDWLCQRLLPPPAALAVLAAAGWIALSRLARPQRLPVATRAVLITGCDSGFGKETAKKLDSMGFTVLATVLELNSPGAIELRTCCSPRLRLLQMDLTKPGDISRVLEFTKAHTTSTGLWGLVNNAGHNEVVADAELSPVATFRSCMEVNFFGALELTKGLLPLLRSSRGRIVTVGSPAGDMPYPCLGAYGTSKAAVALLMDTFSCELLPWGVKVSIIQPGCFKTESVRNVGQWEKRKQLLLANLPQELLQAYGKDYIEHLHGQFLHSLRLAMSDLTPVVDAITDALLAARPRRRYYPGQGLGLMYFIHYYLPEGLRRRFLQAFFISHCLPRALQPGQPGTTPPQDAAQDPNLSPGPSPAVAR
# Description: as §1
# RORγ = molecular target: T4, RORγ (Homo sapiens, UniProt P51449); assay: RORγ reporter gene assay in doxycycline-inducible RORγ CHO Tet-on cells transfected with 11β-HSD1/H6PDH, 11β-HSD2 or pcDNA3; format: cell-based; design: only weakly by 7k27OHC when full-length receptors are considered [([31]), present study]; expressed in transfected cells
# T4 sequence (P51449 1-518): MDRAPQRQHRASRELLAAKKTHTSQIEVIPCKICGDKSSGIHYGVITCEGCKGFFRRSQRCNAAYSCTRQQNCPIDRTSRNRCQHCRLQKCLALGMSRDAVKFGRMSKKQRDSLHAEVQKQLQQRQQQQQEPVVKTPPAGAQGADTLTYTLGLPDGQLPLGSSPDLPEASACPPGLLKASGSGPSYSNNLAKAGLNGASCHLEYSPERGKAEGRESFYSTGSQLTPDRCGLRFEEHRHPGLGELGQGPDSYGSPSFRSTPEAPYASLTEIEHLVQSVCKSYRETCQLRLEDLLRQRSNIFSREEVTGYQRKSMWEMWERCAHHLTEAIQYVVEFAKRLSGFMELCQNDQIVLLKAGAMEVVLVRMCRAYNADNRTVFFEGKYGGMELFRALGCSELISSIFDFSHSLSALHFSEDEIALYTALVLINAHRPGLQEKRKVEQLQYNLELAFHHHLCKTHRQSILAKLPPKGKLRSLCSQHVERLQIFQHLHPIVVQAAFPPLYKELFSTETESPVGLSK
# Description: Doxycycline-inducible RORγ CHO Tet-on cells were transfected with 11β-HSD1/H6PDH, 11β-HSD2. or pcDNA3 using the electroporation method according to the manufacturer’s protocol (Neon™ transfection system; Invitrogen). Briefly, the cells […]). Three electric pulses of 1,620 V and 10 ms were delivered to the cells using a 100 μl gold tip. Then, the cells (20,000 cells per well) were seeded in 96-well plates using culture medium without antibiotics and incubated for 16 h. The medium was replaced with medium containing charcoal-dextran stripped FBS for 1.5 h before treating the cells with different concentrations of oxysterols. After 6 h, 1.25 μM of the inverse agonist SR2211 was added to the treatment for another 2 h. To induce ROR expression, the cells were additionally subjected to 1 μM doxycycline for a further 16 h. The cells were lysed in 20 μl Tropix lysis solution supplemented with 0.5 mM dithiothreitol. RORγ-mediated activation of the luciferase reporter was measured in 10 μl lysate by adding 100 μl of D-luciferin-firefly substrate solution. Data (mean ± SD) were obtained from at least three independent experiments.
# [1] = 11β-HSD2 expressing RORγ Tet-on cells
"Inhibition of human 11β-HSD1 enzyme activity (in words) (human 11β-HSD1; concentrations up to 10 μM, data not shown)","Rest enzyme activity of mouse 11β-hsd1 (mouse 11β-hsd1; 1 μM test substance, data not shown)",Inhibition of human 11β-HSD2 (in words) (11β-HSD2; not shown),Compound,"IC50 (human 11β-HSD1; 10 min, 37°C)",IC50 (mouse 11β-hsd1),IC50 (11β-HSD2),Reversal of the inhibitory effect of SR2211 on RORγ reporter (in words) (RORγ; [1]),Reversal of the inhibitory effect of SR2211 on RORγ reporter (in words) (RORγ; coexpression of RORγ with 11β-HSD1),IC50 (human 11β-HSD1),"Effect on RORγ reporter (in words) (RORγ; only control plasmid expressed, data not shown)"
–,–,–,"CC(CO)CCC[C@@H](C)[C@H]1CC[C@H]2[C@@H]3C(=O)C=C4C[C@@H](O)CC[C@]4(C)[C@H]3CC[C@]12C (stereo partly shown) [7k27OHC, 7-keto,27-hydroxycholesterol]",357 ± 38 nM,36 ± 2 nM,15 ± 1 nM,weak response,"capable of reversing the inhibitory effect of the RORγ antagonist, SR2211, in the same manner as 7β27OHC",–,–
–,–,–,"CC(CO)CCC[C@@H](C)[C@H]1CC[C@H]2[C@@H]3[C@@H](O)C=C4C[C@@H](O)CC[C@]4(C)[C@H]3CC[C@]12C (stereo partly drawn) [7β27OHC, 7β,27-dihydroxycholesterol]",–,66 ± 11 nM,11 ± 2 nM,could not restore RORγ activity,–,≥ 3000 nM,–
did not inhibit the enzyme activity,~30%,did not inhibit,C[C@@H](CO)CCC[C@@H](C)[C@H]1CC[C@H]2[C@@H]3[C@H](O)C=C4C[C@@H](O)CC[C@]4(C)[C@H]3CC[C@]12C [7α27OHC],–,–,–,–,–,–,same weak concentration-dependent effect as 7k27OHC
